{"source": "patent US20050080054A1", "about": "“Treating androgen decline in aging male (ADAM)-associated conditions with SARMS” (priority 2002, published 2005)", "format_in_all_cases": "in vivo, rat", "key": {"[1]": {"tested_on": "female rats after ovariectomy", "assay": "Bone mineral content (DEXA) in female rats after ovariectomy", "description": "(§1) One hundred ten female rats were assigned to one of eleven treatment groups. Groups 1-8 were ovariectomized on day one of the study. Groups 9-11 were intact animals. Groups 1-6 received Compound VI by daily subcutaneous injection at doses of 0.1, 0.3, 0.5, 0.75, 1.0, and 3 mg/day, respectively. Groups 7 and 11 received dihydrotestosterone (DHT) at a dose of 1 mg/day. Groups 8 and 9 were ovariectomized and intact control groups, respectively. Group 10 received Compound VI at a dose of 1.0 mg/day. All animals were treated for 120 days. Bone mineral content (BMC) was determined using dual energy x-ray absorptiometry (DEXA) on days 1, 30, 60, 90, and 120."}, "[2]": {"tested_on": "female rats after ovariectomy", "assay": "Bone biomechanical strength, cortical thickness, trabecular density and muscle mass in ovariectomized and intact female rats", "description": "as §1"}, "[3]": {"tested_on": "androgen-responsive tissues (prostate, seminal vesicles, levator ani muscle)", "assay": "Androgenic and anabolic activity: weight of androgen-responsive tissues in intact, hemi-orchidectomized and castrated rats", "details": "for Levator Ani weight / Prostate weight / Seminal Vesicle weight: n = 5", "description": "FIG. 3: Androgenic and Anabolic activity of Compound VI and Compound VII in rats. Male rats with normal testicular function (no surgical manipulation) were left untreated (Intact), treated with compound VI (0.5 mg/day), compound VII (0.5 mg/day) or testosterone proprionate (TP, 0.5 mg/day), and the weight of androgen-responsive tissues (prostate—FIG. 3A, semimal vesicles—FIG. 3B, and levator ani muscle—FIG. 3C) was determined.\nFIG. 4: Androgenic and Anabolic activity of Compound VI and Compound VII in rats. Male rats received unilateral orchidectomy (Hemi-orchidectomized) and were left untreated (Intact), treated with vehicle alone (PEG 300), Compound VI (0.5 mg/day), Compound VII (0.5 mg/day), or testosterone proprionate (TP, 0.5 mg/day), and the weight of androgen-responsive tissues (prostate—FIG. 4A, semimal vesicles—FIG. 4B, and levator ani muscle—FIG. 4C) was determined.\nFIG. 5: Androgenic and Anabolic activity of Compound VI and Compound VII in rats. Male rats received bilateral orchidectomy (Castrated) and were left untreated (Intact), treated with vehicle alone (PEG 300), Compound VI (0.5 mg/day), Compound VII (0.5 mg/day), or testosterone proprionate (TP, 0.5 mg/day), and the weight of androgen-responsive tissues (prostate—FIG. 5A, semimal vesicles—FIG. 5B, and levator ani muscle—FIG. 5C) was determined.\n(§2) Compound VI and Compound VII were synthesized and characterized in the laboratory of Dr. Duane Miller at the University of Tennessee, Memphis, Tenn. Male Sprague-Dawley rats were purchased from Harlan Biosciences (Indianapolis, Ind.). The animals were maintained on a 12-h cycle of light and dark with food and water available ad libitum. All animal studies were reviewed and approved by the Animal Care and Use Committee of The Ohio State University, and conformed to the Principles of Laboratory Animal Care (NIH publication #85-23, revised 1985). Immature male Sprague-Dawley rats weighing 187 to 214 g were randomly distributed into 9 groups of 5 animals. One day before the initiation of drug treatment, groups 4 through 6 and groups 7 through 9 received unilateral or bilateral orchidectomy, respectively, via a midline scrotal incision. […] All drugs given to animals were freshly prepared as solutions in polyethylene glycol 300 (PEG 300). Groups 4 and 7 received treatment with vehicle alone (i.e., PEG 300). Animals in groups 3, 6, and 9 received testosterone propionate (TP, 0.5 mg/day) via implantation of subdermal osmotic pumps (Model 2002, Durect Corporation, Palo Alto, Calif.). Animals in groups 2, 5, and 8 received Compound VI or Compound VII (0.5 mg/day) via implantation of subdermal osmotic pumps. After 14 days of drug treatment, rats were weighed, anesthetized, and sacrificed. Blood samples were collected by venipuncture of the abdominal aorta. Plasma samples were analyzed for testosterone, FSH, LH and osteocalcin. Testosterone concentrations were measured by AniLytics Inc. (Gaithersburg, Md.). FSH and LH levels were measured by the National Hormone and Peptide Program (Dr. A F Parlow, UCLA, CA). Plasma osteocalcin levels were determined using a commercially available rat osteocalcin EIA kit from Biomedical Technologies Inc. (Stoughton, Mass.). The ventral prostates, seminal vesicles, and levator ani muscle were removed and weighed. Osmotic pumps were also removed from animals to check for correct pump operation. The weights of all organs were normalized to body weight, and analyzed for any statistically significant differences between groups using single-factor ANOVA with the alpha value set a priori at p<0.05. The weights of prostates and seminal vesicles were used as indices for evaluation of androgenic activity, and the levator ani muscle weight was used to evaluate the anabolic activity. Statistical analyses of parameters from complete blood count or serum chemical profiling, wherever applicable, were performed by single-factor ANOVA with the alpha value set a priori at p<0.05."}, "[4]": {"assay": "Plasma LH levels in male rats of varying hormonal status", "details": "0.5 mg/day; for Plasma LH levels: 14 days, n = 5", "excerpt": "as §2"}, "[5]": {"assay": "Plasma FSH levels in male rats of varying hormonal status", "details": "0.5 mg/day; for Plasma FSH levels: 14 days, n = 5", "excerpt": "as §2"}, "[6]": {"assay": "Plasma osteocalcin levels in male rats of varying hormonal status", "details": "0.5 mg/day; for Plasma osteocalcin levels: 14 days, n = 5", "excerpt": "as §2"}, "[7]": {"assay": "Plasma testosterone levels in male rats of varying hormonal status", "details": "0.5 mg/day; for Plasma testosterone levels: osmotic pump, 14 days, n = 5", "excerpt": "as §2"}, "[8]": {"details": "castrated rats, 0.5 mg/day, 14 days"}, "[9]": {"details": "hemi-orchidectomized animals, 0.5 mg/day"}, "[10]": {"details": "hemi-orchidectomized rats, 0.5 mg/day, 14 days"}, "[11]": {"details": "intact rats, 0.5 mg/day, 14 days"}, "[12]": {"details": "TP statement for castrated male rats"}}, "note": "“And” between values parts separate entries of the source, which are not always exact repeats. Identical values can stand only once. “Also recorded” adds a separate entry of the source.", "data": [{"smiles": "CC(=O)Nc1ccc(OC[C@](C)(O)C(=O)Nc2ccc([N+](=O)[O-])c(C(F)(F)F)c2)cc1", "note": "[Compound VI]", "values": [{"measurement": "whole body BMC", "setting": "[1]; FIG. 9", "result": "increased whole body BMC in a dose-dependent and time-dependent manner"}, {"measurement": "effect at L2-L4 vertebra and proximal femur", "setting": "[1]; FIG. 10", "result": "protective effect"}, {"measurement": "potency comparison Compound VI versus DHT", "setting": "[1]; ovariectomized female rat bone model", "result": "more potent than DHT"}, {"measurement": "bone resorption", "setting": "[1]; ovariectomized female rats, 120 days", "result": "inhibited bone resorption"}, {"measurement": "increase in BMC", "setting": "[1]; ovariectomized female rats, 0.1 mg/day s.c. daily, treated for 120 days (group 1)", "result": 22.9, "unit": "%"}, {"measurement": "increase in BMC", "setting": "[1]; ovariectomized female rats, 0.3 mg/day s.c. daily, treated for 120 days (group 2)", "result": 26.0, "unit": "%"}, {"measurement": "increase in BMC", "setting": "[1]; ovariectomized female rats, 0.5 mg/day s.c. daily, treated for 120 days (group 3)", "result": 28.5, "unit": "%"}, {"measurement": "increase in BMC", "setting": "[1]; ovariectomized female rats, 0.75 mg/day s.c. daily, treated for 120 days (group 4)", "result": 30.5, "unit": "%"}, {"measurement": "increase in BMC", "setting": "[1]; ovariectomized female rats, 1.0 mg/day, treated for 120 days (group 5; DHT 1 mg/day)", "result": 30.0, "unit": "%"}, {"measurement": "increase in BMC", "setting": "[1]; ovariectomized female rats, 3 mg/day s.c. daily, treated for 120 days (group 6)", "result": 40.1, "unit": "%"}, {"measurement": "biomechanical strength of the L5 vertebra and femur", "setting": "[2]; FIG. 11", "result": "increased biomechanical strength"}, {"measurement": "cortical thickness in the femoral mid-shaft", "setting": "[2]; FIG. 12", "result": "increased cortical thickness"}, {"measurement": "trabecular bone loss in the distal femur", "setting": "[2]; OVX animals", "result": "only partially prevented trabecular bone loss"}, {"measurement": "muscle mass", "setting": "[2]; gonadectomized and intact animals", "result": "increased muscle mass"}, {"measurement": "trabecular density of the distal femur", "setting": "[2]; intact animals", "result": "proliferative effect"}, {"measurement": "increasing the weight of the prostate, compared with TP", "setting": "[3]; castrated animals", "result": "less effective than TP"}, {"measurement": "Levator Ani weight", "setting": "[3]; [8]", "result": "100.65 % of intact control"}, {"measurement": "Prostate weight", "setting": "[3]; [8]", "result": "32.55 % of intact control"}, {"measurement": "Seminal Vesicle weight", "setting": "[3]; [8]", "result": "16.47 % of intact control"}, {"measurement": "agonist character in levator ani muscle", "setting": "[3]; from organ weights in rats", "result": "full agonist"}, {"measurement": "agonist character in prostate and seminal vesicles", "setting": "[3]; from organ weights in rats", "result": "partial agonist"}, {"measurement": "effect on weight of the levator ani muscle", "setting": "[3]; hemi-orchidectomized and castrated animals", "result": "significant increases"}, {"measurement": "size of the levator ani muscle, of that observed in untreated hemi-orchidectomized animals", "setting": "[3]; [9]", "result": 108, "unit": "%"}, {"measurement": "size of the prostate, of that observed in untreated hemi-orchidectomized animals", "setting": "[3]; [9]", "result": 75, "unit": "%"}, {"measurement": "size of the seminal vesicles, of that observed in untreated hemi-orchidectomized animals", "setting": "[3]; [9]", "result": 79, "unit": "%"}, {"measurement": "Levator Ani weight", "setting": "[3]; [10]", "result": "108.10 % of intact control"}, {"measurement": "Prostate weight", "setting": "[3]; [10]", "result": "74.69 % of intact control"}, {"measurement": "Seminal Vesicle weight", "setting": "[3]; [10]", "result": "78.55 % of intact control"}, {"measurement": "effect on prostate weights", "setting": "[3]; intact and hemi-orchidectomized animals", "result": "significant decreases in prostate weights"}, {"measurement": "change in size of levator ani muscle", "setting": "[3]; intact animals, 0.5 mg/day", "result": "no statistically significant changes"}, {"measurement": "change in size/weight of the seminal vesicles", "setting": "[3]; intact animals, 0.5 mg/day", "result": "no statistically significant changes; also recorded: no effect"}, {"measurement": "Levator Ani weight", "setting": "[3]; [11]", "result": "109.15 % of intact control"}, {"measurement": "Prostate weight", "setting": "[3]; [11]", "result": "79 % of intact control and 79.41 % of intact control"}, {"measurement": "Seminal Vesicle weight", "setting": "[3]; [11]", "result": "90.54 % of intact control"}, {"measurement": "adverse pharmacologic effects", "setting": "[3]; male rats, 0.5 mg/day, 14 days", "result": "No adverse pharmacologic effects were observed"}, {"measurement": "effect on plasma LH levels", "setting": "[4]; [12]", "result": "no effect"}, {"measurement": "Plasma LH levels", "setting": "[4]; castrated male rats", "result": "8.644 ± 2.799", "unit": "ng/mL"}, {"measurement": "Plasma LH levels", "setting": "[4]; hemi-orchidectomized male rats", "result": "0.124 ± 0.115", "unit": "ng/mL"}, {"measurement": "Plasma LH levels", "setting": "[4]; intact male rats", "result": "0.026 ± 0.037", "unit": "ng/mL"}, {"measurement": "effect on plasma FSH levels", "setting": "[5]; [12]", "result": "no effect"}, {"measurement": "Plasma FSH levels", "setting": "[5]; castrated male rats", "result": "69.6 ± 11.7", "unit": "ng/mL"}, {"measurement": "Plasma FSH levels", "setting": "[5]; hemi-orchidectomized male rats", "result": "15.2 ± 2.2", "unit": "ng/mL"}, {"measurement": "Plasma FSH levels", "setting": "[5]; intact male rats", "result": "14.4 ± 1.7", "unit": "ng/mL"}, {"measurement": "effect on plasma osteocalcin levels", "setting": "[6]; Compound VI statement for hemi-orchidectomized and castrated animals", "result": "significant increase"}, {"measurement": "Plasma osteocalcin levels", "setting": "[6]; castrated male rats", "result": "94.215 ± 12.568", "unit": "ng/mL"}, {"measurement": "Plasma osteocalcin levels", "setting": "[6]; hemi-orchidectomized male rats", "result": "89.804 ± 15.517", "unit": "ng/mL"}, {"measurement": "Plasma osteocalcin levels", "setting": "[6]; intact male rats", "result": "55.584 ± 9.715", "unit": "ng/mL"}, {"measurement": "Plasma testosterone levels", "setting": "[7]; castrated male rats", "result": "0.066 ± 0.148", "unit": "ng/mL"}, {"measurement": "Plasma testosterone levels", "setting": "[7]; hemi-orchidectomized male rats", "result": "1.404 ± 0.810", "unit": "ng/mL"}, {"measurement": "Plasma testosterone levels", "setting": "[7]; intact male rats", "result": "1.830 ± 0.510", "unit": "ng/mL"}, {"measurement": "effect on testosterone levels", "setting": "[7]; intact, hemi-orchidectomized or castrated male rats", "result": "did not affect testosterone levels"}]}]}
